In a compilation of properties of binary mixtures (doi:10.1007/s10973-015-5205-9):

Assay: xn = mol fraction of the nth substance listed
Conditions: 100 kPa

CC[n+]1ccn(C)c1.F[B-](F)(F)F + CCOCCO
x2 = 0
Conditions	speed of sound [m/s]
298.15 K	1620.3
318.15 K	1573.8
328.15 K	1550.9

CCOCCO + CC[n+]1ccn(C)c1.F[B-](F)(F)F
speed of sound [m/s]
Conditions	298.15 K	308.15 K	318.15 K	328.15 K
x1 = 0.0466	1614.9	1591.3	1568	1545.2
x1 = 0.0981	1607.6	1583.8	1560.2	1537.4
x1 = 0.1487	–	1575	1551.2	1528.2
x1 = 0.1973	1589.7	1565.3	–	1517.9
x1 = 0.3049	1564.7	1539.7	–	1490.7
x1 = 0.4112	1535	1509.2	1483.5	1458.2
x1 = 0.4953	1508.4	–	1455.3	1428.8
x1 = 0.5705	1482.4	1455	1427.6	–
x1 = 0.696	1435	1406	1376.9	1347.7
x1 = 0.7952	1394.4	1363.9	–	1302.7
x1 = 0.8411	1374.8	1343.6	1311.9	–
x1 = 0.8698	1362.4	–	1298.3	1267.2
x1 = 0.9487	1327.3	1294	1259.9	1228.2
x1 = 1	1304	1269.5	1234.1	1202.2
